In patent publication EP0545991B1, “PEPTIDES THAT BLOCK HUMAN IMMUNODEFICIENCY VIRUS INFECTIONS AND METHODS OF USE THEREOF” (VAHLNE, Anders, priority 1990, dated 1992):

Columns and labels:
HIV = type: cell-based
Method: Virus at 100 50% tissue culture infectious doses (TCID50) and peptides at concentrations of 250 and 25 µg/ml were added to the cells simultaneously and incubated for 2 hours at 4°C with frequent stirring. Subsequently, the temperature was increased to 37°C and the mixtures were subjected to a second incubation for 2 hours. […] Cells, at a concentration of 5 x 10^5/ml, were then added to 24 multidish well plates at a final volume of 1.5 ml of growth medium (RPMI supplemented with 10% fetal calf serum (FCS), antibiotics and polybrene (2 µg/ml)), with the addition of peptides at dilutions of 250 or 25 µg/ml. […]
Infected cells were continuously monitored for formation of syncytia and the growth medium supernatants were analyzed at days 9-12 p.i. for p24 antigen which is an indicator of HIV replication.
Briefly, the following protocol was used for detection of the p24 antigen. HIV p24 antigen was determined using a rabbit anti-p24 polyclonal antiserum as capture antibody and a biotinylated rabbit anti-p24 polyclonal antibody was used as detecting antibody in an avidin-horse radish peroxidase (HRP) ELISA. […] Serial dilutions of the supernatants were made so as to detect p24 concentration in the most accurate range (< 2.0 absorbance units). […]

ELI1/HUT = assay: Infectivity assay (p24 ELISA, indirect immunofluorescence), ELI-1/HUT; type: cell-based, HIV
Method: Table 1 lists the peptides and their amino acid sequences tested against the following virus/cell systems: • (1) HTLV-111B/H9 Denmark (obtained from Denmark, Bent Faber-Vestergard); • (2) HTLV-111B/H9 New York (obtained from Dr. William Hall, North Shore Hospital, Manhasset, N.Y.); and • (3) ELI-1/HUT (obtained from Dr. Levy, San Francisco, CA).
Virus at 100 50% tissue culture infectious doses (TCID50) and peptides at concentrations of 250 and 25 µg/ml were added to the cells simultaneously and incubated for 2 hours at 4°C with frequent stirring. Subsequently, the temperature was increased to 37°C and the mixtures were subjected to a second incubation for 2 hours. Following the second incubation, the cells were centrifuged at 325 x g and washed once in RPMI medium (Gibco Laboratories, NY). Cells, at a concentration of 5 x 10^5/ml, were then added to 24 multidish well plates at a final volume of 1.5 ml of growth medium (RPMI supplemented with 10% fetal calf serum (FCS), antibiotics and polybrene (2 µg/ml)), with the addition of peptides at dilutions of 250 or 25 µg/ml. […] As additional controls, two HIV infected cell cultures (designated pos. controls 1 and 2, Tables 3-5) and two uninfected cell cultures (designated neg. controls 1 and 2) were used.
Briefly, the following protocol was used for detection of the p24 antigen. HIV p24 antigen was determined using a rabbit anti-p24 polyclonal antiserum as capture antibody and a biotinylated rabbit anti-p24 polyclonal antibody was used as detecting antibody in an avidin-horse radish peroxidase (HRP) ELISA. The sensitivity of the assay allowed detection of approximately 50 pg of p24 antigen per ml supernatant. […] Serial dilutions of the supernatants were made so as to detect p24 concentration in the most accurate range (< 2.0 absorbance units).
At the end of the experiment, the cells were collected and fixed on slides with acetone according to standard procedures as described in Jeansson et al., Exp. Cell Res., 161:181-188 (1985). The number of infected cells were then determined by indirect immunofluorescence using a human HIV positive serum diluted 1/100 and FITC conjugated antihuman IgG (Bio Merieux, France) diluted 1/200.

HTLV IIIB/H9 N.Y. = assay: Infectivity assay (p24 ELISA, syncytia formation, indirect immunofluorescence), HTLV-IIIB/H9 New York; type: cell-based, HIV
Method: Virus at 100 50% tissue culture infectious doses (TCID50) and peptides at concentrations of 250 and 25 µg/ml were added to the cells simultaneously and incubated for 2 hours at 4°C with frequent stirring. Subsequently, the temperature was increased to 37°C and the mixtures were subjected to a second incubation for 2 hours. Following the second incubation, the cells were centrifuged at 325 x g and washed once in RPMI medium (Gibco Laboratories, NY). Cells, at a concentration of 5 x 10^5/ml, were then added to 24 multidish well plates at a final volume of 1.5 ml of growth medium (RPMI supplemented with 10% fetal calf serum (FCS), antibiotics and polybrene (2 µg/ml)), with the addition of peptides at dilutions of 250 or 25 µg/ml.
HIV p24 antigen was determined using a rabbit anti-p24 polyclonal antiserum as capture antibody and a biotinylated rabbit anti-p24 polyclonal antibody was used as detecting antibody in an avidin-horse radish peroxidase (HRP) ELISA. The sensitivity of the assay allowed detection of approximately 50 pg of p24 antigen per ml supernatant. […] Serial dilutions of the supernatants were made so as to detect p24 concentration in the most accurate range (< 2.0 absorbance units).
The number of infected cells were then determined by indirect immunofluorescence using a human HIV positive serum diluted 1/100 and FITC conjugated antihuman IgG (Bio Merieux, France) diluted 1/200.
In tables 3-6, the p24 content of the supernatants of infected cells was determined by diluting the supernatants of infected cells in serial tenfold dilutions (1/10, 1/100, 1/1000 and 1/10,000) and analyzing in ELISA as described above. Results are indicated by the absorbance values (454nm) of respective dilutions.
Results are indicated by the absorbance values (454 nm) of respective dilutions.

[1] = system: herpes simplex virus type I (HSV-1) strain McIntyre; assay: Yield inhibition assay of HSV-1 in GMK cells; type: cell-based
Method: To determine the specificity and toxicity of the peptides, Tyr-Arg-Gly-Pro-Gly, Gly-Pro-Gly and Arg-Gly-Pro-Gly were tested in (1) a plaque reduction assay and (2) a yield inhibition assay of herpes simplex virus type I (HSV-1) strain McIntyre.
The yield inhibition assay was performed as follows: HSV-1 was inoculated at a multiplicity of 0.5 pfu per GMK cell in the presence of the respective peptide at concentrations of 250 and 25 µg/ml. Virus adsorption was performed for 60 min. at room temperature. The cells were then rinsed five times with Hanks' Balanced Salt Solution (BSS) and incubated in a 5% CO2 atmosphere at 37°C with maintenance medium containing either peptides or acyclovir, according to the methods described in "Proceedings of a Symposium on Acyclovir", The American Journal of Medicine, July 20, (1982) which is incorporated herein by reference, or without any additives. Twenty-four hours p.i. the cells were freeze-thawed, scraped into the medium and tested for virus yield by the infectivity assay as outlined in Example 2. The results are shown in Table 7 where the plaque reduction values are the mean of two cultures and the yield of HSV-1 after 24 hours is the mean of two determinations and the values are presented in millions of pfu/ml.

Compound: Arg-Gly-Pro-Gly-Arg (RGPGR; printed: Arg-Gly-Pro-Gly-Arg)
- infection of treated cells by p24 synthesis and syncytia formation (HIV; Tables 3-5): became infected
- prevention of HIV infection by p24 levels and syncytia formation (HIV; Tables 3 to 6): did not prevent HIV infection
- PERCENTAGE OF POS CELLS (ELI1/HUT; 25 µg/ml): 10-15
- p24 1/10 (ELI1/HUT; 25 µg/ml): 3 absorbance (454 nm)
- p24 1/100 (ELI1/HUT; 25 µg/ml): 2.296 absorbance (454 nm)
- p24 1/1,000 (ELI1/HUT; 25 µg/ml): 0.745 absorbance (454 nm)
- p24 1/10,000 (ELI1/HUT; 25 µg/ml): 0.263 absorbance (454 nm)
- PERCENTAGE OF POS CELLS (ELI1/HUT; 250 µg/ml): 10-15
- p24 1/10 (ELI1/HUT; 250 µg/ml): 3 absorbance (454 nm)
- p24 1/100 (ELI1/HUT; 250 µg/ml): 1.999 absorbance (454 nm)
- p24 1/1,000 (ELI1/HUT; 250 µg/ml): 0.788 absorbance (454 nm)
- p24 1/10,000 (ELI1/HUT; 250 µg/ml): 0.339 absorbance (454 nm)
- # OF SYNCYTIA/WELL Day 9 (HTLV IIIB/H9 N.Y.; 25 µg/ml): 14
- # OF SYNCYTIA/WELL Day 14 (HTLV IIIB/H9 N.Y.; 25 µg/ml): >100
- % OF POS CELLS (HTLV IIIB/H9 N.Y.; 25 µg/ml): 5-10%
- p24 1/10 (HTLV IIIB/H9 N.Y.; 25 µg/ml): 2.16 absorbance (454 nm)
- p24 1/100 (HTLV IIIB/H9 N.Y.; 25 µg/ml): 0.853 absorbance (454 nm)
- p24 1/1,000 (HTLV IIIB/H9 N.Y.; 25 µg/ml): 0.268 absorbance (454 nm)
- p24 1/10,000 (HTLV IIIB/H9 N.Y.; 25 µg/ml): 0.145 absorbance (454 nm)
- # OF SYNCYTIA/WELL Day 9 (HTLV IIIB/H9 N.Y.; 250 µg/ml): 14
- # OF SYNCYTIA/WELL Day 14 (HTLV IIIB/H9 N.Y.; 250 µg/ml): >100
- % OF POS CELLS (HTLV IIIB/H9 N.Y.; 250 µg/ml): 10%
- p24 1/10 (HTLV IIIB/H9 N.Y.; 250 µg/ml): 2.116 absorbance (454 nm)
- p24 1/100 (HTLV IIIB/H9 N.Y.; 250 µg/ml): 0.974 absorbance (454 nm)
- p24 1/1,000 (HTLV IIIB/H9 N.Y.; 250 µg/ml): 0.334 absorbance (454 nm)
- p24 1/10,000 (HTLV IIIB/H9 N.Y.; 250 µg/ml): 0.15 absorbance (454 nm)

Compound: Nc1nc2c(ncn2COCCO)c(=O)[nH]1 [Acyclovir, acyclovir]
- yields of HSV-1 ([1]; 2 µM): significantly reduced
- YIELD OF HSV AFTER 24 HOURS ([1]; 2 µM, mean of two determinations): 0.9 millions of pfu/ml
- activity at 2 µM ([1]; Human alphaherpesvirus 1, GMK, 24 h, read-out: YIELD OF HSV AFTER 24 HOURS PERCENT OF CONTROL): 3%
